Measurements published in a melting point compilation (Tetko et al.; mined from patent text by program, amines drawn as free bases though some values may be those of a salt).

Row | SMILES | melting point [°C]
1 | CCOCCn1c(C)nc2c(N)ncc(C)c21 | 129 to 130
2 | CC1=Nc2ccccc2N(Cc2ccccc2)C(=O)C1 | 111 to 113
3 | Cc1cc(Nc2ccccc2C(=O)O)n(-c2ccccn2)n1 | 190 to 193
4 | COc1cc(-c2nn(C)c(C(N)=O)c2C)c(F)cc1Cl | 224 to 226
5 | O=C(NCc1ccc(F)cc1)c1cccc(C(=O)NCc2ccc(F)cc2)c1 | 190 to 191
6 | OCC1COC2(CCN(CCc3ccccc3)CC2)O1 (centres undefined) | 96
7 | COc1cccc2c1CC(NC(C)=O)CC2 (centres undefined) | 156 to 157
8 | CCS(=O)(=O)N1CCSc2ccccc2C1 | 78 to 80
9 | CC(C)(C)c1cc(SC(Sc2cc(C(C)(C)C)c(O)c(C(C)(C)C)c2)c2ccccc2)cc(C(C)(C)C)c1O | 122 to 124
10 | Cc1oc(-c2ccccc2)nc1COc1ccc(Cn2cc(/C=C/C(=O)O)c(-c3ccccc3)c2)cc1 | 154 to 155
11 | OC1Sc2ccccc2-c2ccccc21 (centres undefined) | 83 to 86
12 | CN1CNC(=S)N(c2ccc([N+](=O)[O-])cc2)C1 | 170 to 172
13 | CS(=O)(=O)c1ccc(-c2cc(C(=O)c3ccc(Cl)cc3Cl)sc2N2CCOCC2)cc1 | 170
14 | Cc1[nH]c(/C=C2\C(=O)Nc3cc(NC(=O)c4c[nH]cc(-c5ccc(F)cc5)c4=O)ccc32)c(C)c1CC(=O)N1CCOCC1 | 235
15 | COC(=O)CCCCCS(=O)c1ccc(-c2ccc(Cl)cc2)cc1 (centres undefined) | 64 to 65
16 | CCOC(=O)C(O)CCc1ccc(C(=O)CCc2nc(-c3ccccc3)oc2C)cc1 (centres undefined) | 87 to 88
17 | Nc1nc(Cl)c2cnn(Cc3ccccc3F)c2n1 | 197 to 198
18 | Cc1c(-c2ccc(O)c(F)c2)sc(C=O)c1-c1ccc(O)cc1 | 227 to 229
19 | CCOC(=O)c1ccc2nccc(Cl)c2c1 | 84 to 85
20 | CCOC(=O)C(=NO)c1cnsn1 | 60 to 66
21 | CCOC(=O)[C@H](Cc1ccc(-c2c(OC)cc(C=O)cc2OC)cc1)NC(=O)c1c(F)cccc1F | 114 to 116
22 | c1ccc2c3c([nH]c2c1)C(c1ccc2c(c1)CCO2)NCC3 (centres undefined) | 98 to 99
23 | Cc1nc2c(N)nc3ccccc3c2n1OCCOc1ccccc1 | 237 to 239
24 | CC(=O)NC[C@H]1CN(c2ccc(N3CCC(F)(F)CC3)c(F)c2)C(=O)O1 | 192 to 194
25 | Cc1cccc(NC(=O)NC2N=C(c3ccccc3F)c3ccccc3N(Cc3nc4ccccc4[nH]3)C2=O)c1 (racemic) | 165 to 167

Row | SMILES | melting point [°C]
26 | O=S(=O)(Oc1ccc(-c2cc3ccccc3[nH]2)cc1O)c1ccccc1 | 158
27 | Cc1nc(N2CCN(Cc3ccc(F)cc3)C2=O)sc1C(=O)NCc1ccc(F)cc1 | 177 to 178
28 | CCN(CC)CCNC(=O)N1CCCC(S(=O)(=O)c2ccc(C)cc2)C1 (centres undefined) | 116 to 118
29 | CCOC(=O)c1cc2c(C(=O)CN(Cc3ccccc3)C(C)CC(=O)OC)ccc(OCc3ccccc3)c2[nH]1 (centres undefined) | 120 to 123
30 | O=C(C1CCCN1)N1CCN(c2nc(N3CCCC3)nc(N3CCCC3)n2)CC1 (centres undefined) | 143
31 | CCCCn1c(=O)c(C(=O)O)c(-c2ccc(Br)cc2)c2cccnc21 | 158 to 160
32 | O=C(CCl)NC(c1ccccc1)C(O)c1ccccc1 (centres undefined) | 166 to 169
33 | CCOC(=O)N1c2ccccc2Sc2cc(O)c3ccccc3c21 | 205 to 206
34 | CCC(=O)c1cc(-c2ccccc2)no1 | 111 to 112
35 | O=C(NC(=O)C(c1ccccc1)c1ccccc1)OC1CCCC1 | 120 to 123
36 | O=c1[nH]c2cc(Cl)ccc2c(O)c1-c1ccc(Oc2ccccc2)cc1 | 274 to 276
37 | COc1ccc(C(=O)Nc2ccc(CCc3ccc(O)c(O)c3)cc2)c(O)c1 | 179 to 180
38 | CCCn1c(-c2ccccc2)nc2cc(CO)ccc21 | 113
39 | COc1cc2c(cc1OC)C(C(=O)O)SCC2 (centres undefined) | 167 to 169
40 | CCCN(CCC)c1ccc2nc3c4ccccc4c(=Nc4ccncc4)cc-3oc2c1 | 215 to 216
41 | O=C(Cc1ccccc1Cl)Nc1ccc(C(=O)N2Cc3cccn3Cc3ccccc32)cc1 | 99 to 103
42 | COc1cc(COc2nn(-c3ccccc3)cc2C=O)ccc1OCc1nc(-c2cccc(C#N)c2)oc1C | 161 to 162
43 | CCN(CC)CCN(CC)C(=O)c1ccccc1Nc1ccnc2c(C(F)(F)F)cccc12 | 112 to 113
44 | COc1cc2nc(N3CCc4c(cccc4-c4cnccc4N)C3)[nH]c(=O)c2cc1OC | > 300
45 | Cc1cc(Br)cnc1CCCCNC1=NS(=O)N=C1N (centres undefined) | 188 to 190
46 | O=C(Nc1nnn[nH]1)c1ccccc1O | 264 to 266
47 | COc1ccc2cccc(N3C(=O)CN(Cc4ccccc4)CC3=O)c2c1 | 178
48 | COc1cccc(C2CCCN2S(=O)(=O)c2ccc(Cl)cc2)c1 (racemic) | 95
49 | CC(C)(C)c1cc(CC(C)(C)C2SCCS2)cc(C(C)(C)C)c1O | 119
50 | CCCCCc1ccc(OCC(O)CC#CCCCC(=O)O)cc1 (centres undefined) | 54 to 57

Row | SMILES | melting point [°C]
51 | O=[N+]([O-])c1ccc(CO)cc1OC1CCCC1 | 54
52 | CC(=O)Nc1scc(C)c1C(=O)c1ccccc1Cl | 148 to 149
53 | CCC(=O)C1=C(O)CC(c2c(C)c(C)c3c(c2C)OC(C)(C)C3)CC1=O (centres undefined) | 74 to 76
54 | COC(=O)c1ccccc1/C=C/CO | 75 to 80
55 | CC(C)(C)c1ccc(C2CCCN3CCS(=O)(=O)N=C23)cc1 (centres undefined) | 232 to 236
56 | CN1CCC(c2ccccc2)(N2CCCC2)C(O)C1 (centres undefined) | 149 to 151
57 | COc1cc(Cl)cc2nc(S(=O)(=O)Nc3c(Cl)cccc3Cl)nn12 | 232 to 234
58 | CC1(C)C(C(=O)O)C1C(OS(C)(=O)=O)C(Br)(Br)Br (centres undefined) | 168
59 | C[Si](C)(c1ccccc1)C1CC(=O)c2c(nc3ccccc3c2N)C1 (centres undefined) | 178 to 180
60 | Cc1cnc2c(c1)C(=O)CC(C)(C)C2 | 232 to 235
61 | O=C1c2ccccc2C(Nc2ccc(Cl)cc2)N1CCCN1CC=C(c2ccccc2)CC1 (centres undefined) | 188
62 | CN(c1ccc(F)c2cc(-c3nccs3)[nH]c12)S(=O)(=O)c1cccs1 | 197 to 198
63 | CCCCc1nn(-c2ccc(C(F)(F)F)cn2)cc1C(=O)OCC | 58 to 59
64 | CC(C)(C)c1cc(Cl)cc2c1OC(=O)C2O (centres undefined) | 150 to 154
65 | CCOC(=O)CC1CN=C(c2cc3cccc(N(C)S(=O)(=O)c4cccs4)c3[nH]2)S1 (centres undefined) | 101 to 102
66 | Cc1cc(C)c2cccc(OCc3c(Cl)ccc(S(=O)(=O)N4CCC[C@H]4C(=O)N4CCN(S(=O)(=O)c5ccc(C#N)cc5)CC4)c3Cl)c2n1 | 156 to 158
67 | COc1cccc(OC)c1-c1cc(C(=O)NC2(C(=O)O)C3CC4CC(C3)CC2C4)nn1-c1ccc(C(=O)NC2CC(C)(C)NC(C)(C)C2)cc1C(C)C (centres undefined) | 270 to 272
68 | CCCOc1n[nH]c(=O)n1C | 74
69 | COc1ccccc1-c1cc(=O)c2ccccc2o1 | 97 to 98.5
70 | COP(=O)(Cc1ccc(-c2nc3ccccc3s2)cc1)OC | 130
71 | COCCCn1nnnc1-c1cc(Br)c(OCc2ccccc2)cc1OCc1ccccc1 | 92 to 93
72 | CC(Oc1cnn(-c2ccc(Cl)cc2)c(=O)c1Cl)c1ccc(Cl)cc1 (centres undefined) | 135 to 138
73 | O=C(Nc1ccc(-n2nc(C(F)(F)F)cc2C(F)(F)F)cc1)c1cccc(I)c1 | 192 to 193
74 | COc1ccc2c(Cl)nccc2c1 | 72 to 74
75 | Cc1nc2cc(-c3ccccc3C#N)ccc2[nH]1 | 205 to 208

Row | SMILES | melting point [°C]
76 | C=CCOc1cc(=O)n(-c2ccccc2)c2ncccc12 | 171 to 174
77 | O=C1O[C@@H]2C[C@@]1(O)C[C@H]1OC(c3ccccc3)O[C@@H]21 (some centres undefined) | 96 to 97
78 | CC(=O)Oc1ccccc1-c1ccc(C(C)=O)cc1 | 116 to 117
79 | CS(=O)(=O)N(Cc1ccncc1)c1ccc(F)cc1F | 101 to 105
80 | O=C(O)C(=O)c1cn(Cc2ccccc2)c2ccc(Oc3ccc(C(F)(F)F)cc3Cl)cc12 | 152 to 154
81 | CCOC(=O)c1cc(=O)c2cc3c(c(CC(O)CO)c2o1)CCCC3 (centres undefined) | 142 to 144
82 | CC(=O)Nc1ccccc1NS(=O)(=O)c1cc(C(=O)O)cc(NCc2ccco2)c1Oc1ccccc1 | 207 to 210
83 | Cc1cccc(NC(=O)NCC(=O)N(CC(=O)OC(C)(C)C)c2ccccc2C(=O)N2CCCC(C)(C)C2)c1 | 207
84 | Oc1cccc(-c2ocnc2-c2onc(-c3ccccc3)c2-c2ccccc2)c1 | 199 to 200
85 | CCOC(=O)c1c(C(C)(C)O)nc(SCC)n1Cc1ccc(-c2ccccc2-c2nnn[nH]2)cc1 | 185 to 188
86 | Clc1ccc(-c2ccccc2Cl)nn1 | 145 to 147
87 | O=C(CS(=O)(=O)c1ccccc1)NC1CCN(Cc2ccc(Cl)c(Cl)c2)CC1 | 97 to 99
88 | COC(=O)CSc1cccc(CNC(=O)C2Cc3ccccc3N2S(=O)(=O)c2ccc(-c3cccc(C(F)(F)F)c3)cc2)c1 (centres undefined) | 51
89 | Cc1ccccc1Sc1cccc(CO)c1O | 75 to 77
90 | COc1ccc(Cn2c(C(C)C)c(C(=O)c3cccnc3)c3ccccc32)cc1 | 190
91 | O=C1NCN(c2ccc(F)cc2)C12CCN(CCNC(c1ccc(F)cc1)c1ccc(F)cc1)CC2 | 193
92 | COc1cc2nc(N3CCN(C)CC3)n3ncnc3c2cc1OC | 194 to 196
93 | CS(=O)(=O)C(=C1CN(C(c2ccc(Cl)cc2)c2ccc(Cl)cc2)C1)c1cccc(C(=O)NN2CCCCC2)c1 | 175
94 | COC(=O)C1=C(C)NC(=S)N(S(C)(=O)=O)C1c1cccc([N+](=O)[O-])c1 (centres undefined) | 188 to 190
95 | COC(=O)c1ccc(Cl)cc1NC(=O)Cc1cccnc1 | 85 to 87
96 | O=C(CBr)Nc1cccc(F)c1C(=O)O | 169 to 170
97 | CCCCCN(C(=O)Nc1ccc(C(=O)O)cc1)c1ccc2c(c1)C(C)(C)CCC2(C)C | 184 to 186
98 | CCOc1nc2cc(OC)cc(C)c2c(=O)o1 | 138 to 140
99 | CC(C)(Sc1ccncc1)C(=O)O | 190 to 192
